# Measured values reported in US20210113692A1, “DOSING REGIMEN” (IMCLONE, LLC, priority 2016, published 2021).
# Several values for one entry are separate records, joined by “and”; a condition that tells them apart may be missing. Equal entries are not always repeated. Entries after “also recorded” stand apart in the source; their conditions may differ. Where two headings read alike, the source gives them in different places.
# Legend:
# [1] = tested on: patients with advanced STS; assay: Randomized Phase 2 Study of doxorubicin with or without olaratumab (NCT01185964): PFS, OS, ORR; format: in vivo, human; conditions: for median OS / median PFS: Phase 2 Study
# Description: The Study is an open-label, multicenter, Phase 2 trial in which patients with advanced STS not amenable to treatment with surgery or radiotherapy are treated with olaratumab in combination with doxorubicin or doxorubicin alone.
# Enrolled patients who meet all eligibility criteria are randomized 1:1 to one of two treatment arms. Arm A or Arm B. Arm A patients receive olaratumab in combination with doxorubicin (hereinafter the “Combination Arm”) and Ann B patients receive doxorubicin alone (hereinafter the “Doxonthicin Arm”), Randomization of this Study is performed according to a dynamic randomization algorithm using 4 pre-defined risk factors: PDGFRα expression (positive vs. negative), number of previous lines of treatment (0 vs. 1+ lines), histological tumor type (i.e., leiomyosarcoma vs. synovial sarcoma vs. other tumor type), and ECOG performance status (0-1 vs. 2). This dynamic randomization procedure is used to minimize imbalance between treatment groups. To determine tumor type and PDGFRCL expression in patients, a tumor sample from either a biopsy or previously archived tumor tissue sample is sufficient. Biopsy is required to be performed within 21 days prior to randomization; archived tissue sample must also be available within this timeframe.
# Combination Arm: 66 patients randomized in the Combination Ann receive 15 mg/kg of olaratumab on Days 1 and 8 of each 21-day treatment cycle, in combination with 75 mg/m^2 doxorubicin administered on Day 1 of each cycle. (Note: if premedication is required prior to the first doxorubicin infusion, this is to be done after the completion of olaratumab infusion, not before the olaratumab infusion. This premedication may be administered within the hour that follows completion of the olaratumab infusion.) The actual (not planned) administration of each doxorubicin infusion defines Day 1 of each 21-day treatment cycle. The combination treatment just described is to continue for up to 8 cycles at the investigator's discretion. During Cycles 5 through 8, patients being treated with doxorubicin may also be administered 750 mg/m^2 dexrazoxane on Day 1 of each cycle, (at the investigator's discretion) prior to doxorubicin on Day 1 of each 21-day cycle. If the dose of doxorubicin is reduced at any point in the Study, the dose of dexrazoxane is to be reduced accordingly, maintaining a dosage ratio of 10:1. For example, if doxorubicin is reduced to 60 mg/m^2, then dexrazoxane is to be reduced to 600 mg/m^2. Doxorubicin may be administered within the hour that follows completion of the olaratumab infusion. In the absence of PD or other withdrawal criteria, patients in the Combination Arm who have completed eight cycles of therapy are to receive subsequent olaratumab monotherapy, administered on Days 1 and 8 of each 21-day cycle. Furthermore, if doxorubicin is discontinued (e.g., for reasons of toxicity) prior to end of cycle 8 and in the absence of withdrawal criteria, patients may continue to receive olaratumab monotherapy. For patients who discontinue olaratumab during the first 8 cycles of treatment, doxorubicin may be continued (for up to 8 cycles), provided no withdrawal criteria are met.
# Doxorubicin Arm: 67 patients randomized in the Doxorubicin Arm receive 75 mg/m^2 doxorubicin on Day 1 of each cycle, for up to 8 cycles at the investigator's discretion. The actual (not planned) administration of each doxorubicin infusion defines Day 1 of each 21-day treatment cycle. During cycles 5 through 8, 750 mg/m^2 dexrazoxane may also be administered on Day 1 of each cycle, (at the investigator's discretion) prior to doxorubicin on Day 1 of each 21-day cycle. If the dose of doxorubicin is reduced at any point in the Study, the dose of dexrazoxane is to be reduced accordingly, maintaining a dosage ratio of 10:1. For example, if doxorubicin is reduced to 60 mg/m^2, then dexrazoxane is to be reduced to 600 mg/m^2. […]
# [2] = tested on: patients with advanced STS; assay: Matched case-control exposure-response analysis of OS and PFS across quartiles of olaratumab serum levels; format: in vivo, human
# Description: (§1) Pharmacokinetics and Exposure-response Analysis of The “Study”: The PFS, OS, PK and safety data from patients who received olaratumab in the Study, as discussed above, were analyzed.
# (§2) The effect of olaratumab serum levels is explored using average serum concentration (Cavg) and trough serum concentration after cycle 1 (Cmin1). The PFS and OS data are analyzed using a matched case-control (MCC) analysis across quartiles of olaratumab serum levels and a time-to-event (survival) model with a constant baseline hazard and a Hill function to describe the effect of olaratumab. The rate of treatment-emergent adverse events (TEAEs) is compared across quartiles of olaratumab exposure.
# [3] = set-up: species or system human; conditions: in vivo
# Description: The rate of treatment-emergent adverse events (TEAEs) is compared across quartiles of olaratumab exposure.
# [4] = tested on: patients with advanced STS; assay: Time-to-event (survival) model of the effect of olaratumab serum levels on PFS/OS hazard; format: in vivo, human; conditions: Cmin1-based and Cavg-based models
# Description: Further, FIG. 1, illustrates the predicted effect of olaratumab on HR for PFS. In FIG. 1. PFS as predicted by Cmin1-based model is shown in the left panel and the Cavg-based model is shown in the right panel. The solid red lines describe the change in HR as a function of Cmin1 and Cavg; the grey histograms describe the distribution of olaratumab Cmin1 and Cavg in the Study experimental arm together with their quartiles (dashed blue lines) the green dashed lines indicate ECmin150 and ECavg50.
# [5] = Population PK (PopPK) model using PK data from 4 Phase 2 studies; format: in vivo, human; conditions: irrespective of indication
# Description: • Population Pharmacokinetics Analysis of the Four Phase 2 Clinical Studies: A population PK (PopPK) model was developed using PK data from 4 Phase 2 studies (www.clinicaltrials.gov study numbers NCT00918203 (A Randomized Phase 2 Study of Human Anti-PDGFRα. Monoclonal Antibody (IMC-3G3) With Paclitaxel/Carboplatin or Paclitaxel/Carboplatin Alone in Previously Untreated Patients With Locally Advanced or Metastatic Non-Small Cell Lung Cancer), NCT01185964 (A Phase 1b/2 Randomized Phase 2 Study Evaluating the Efficacy of Doxorubicin With or Without a Human Anti-PDGFRα Monoclonal Antibody (IMC-3G3) in the Treatment of Advanced Soft Tissue Sarcoma), NCT00895180 (An Open Label, Phase 2 Study Evaluating the Safety and Efficacy of IMC-3G3 or MC-1121B in Patients With Recurrent Glioblastoma Multiforme), and NCT01316263 (A Phase 2 Study of a Human Anti-PDGFRα Monoclonal Antibody (IMC-3G3) in Previously Treated Patients With Unresectable and/or Metastatic Gastrointestinal Stromal Tumors (GIST)). […] A Randomized, Double Blind, Placebo-Controlled, Phase 3 Trial of Doxorubicin Plus Olaratumab Versus Doxorubicin Plus Placebo in Patients With Advanced Soft Tissue Sarcoma (the “Phase 3 Study”) The present invention is being further tested in the Phase 3 Study (trial number NCT02451943 available on clinicaltrials.gov https://clinicaltrials.gov/ct2/show/NCT02451943?term=ANNOUNCE&rank=1).
# [6] = Olaratumab serum concentrations (pharmacokinetics) in the Study
# Description: Serum levels can be measured by an enzyme-linked immunosorbent assay; a test that uses antibodies and color change to identify and quantify a substance.
# as §1, §2
# [7] = Cavg Q1 (56 < 134.4) μg/mL, 15 patients per group
# [8] = Cavg Q3 (≥175.2-<249.9) μg/mL, 15 patients per group
# [9] = Cavg Q4 (≥249.9-347.3) μg/mL, 16 patients per group
# [10] = Cmin1 Q1 (12.3-<62.8) μg/mL, 15 patients per group
# [11] = Cmin1 Q2 (≥62.8-<86.9) μg/mL, 16 patients per group
# [12] = Cmin1 Q4 (≥105.6-188.1) μg/mL, 16 patients per group
molecule,measurement,setting,value
COc1cccc2c1C(=O)c1c(O)c3c(c(O)c1C2=O)C[C@@](O)(C(=O)CO)C[C@@H]3O[C@H]1C[C@H](N)[C@H](O)[C@H](C)O1 [doxorubicin],median OS,[1]; final analysis,14.7 months
same,median PFS,[1]; final analysis,4.1 months
same,"median progression-free survival, blinded independent retrospective review",[1]; in vivo,4.4 months
same,"objective response rate, independent assessment",[1]; in vivo,7.5%
same,objective response rate,"[1]; investigator assessment, RECIST 1.1",11.9%
same,"Number of events, overall survival",[2]; [7],15/13
same,"Number of events, progression-free survival",[2]; [7],15/14
same,"Number of events, progression-free survival","[2]; Cavg Q2 (≥134.4-<175,2) μg/mL, 16 patients per group",16/10
same,"Number of events, overall survival","[2]; Cavg Q2 (≥134.4-<175.2) μg/mL, 16 patients per group",16/14
same,"Number of events, overall survival",[2]; [8],15/7
same,"Number of events, progression-free survival",[2]; [8],15/8
same,"Number of events, overall survival",[2]; [9],16/11
same,"Number of events, progression-free survival",[2]; [9],16/12
same,"Number of events, overall survival",[2]; [10],15/12
same,"Number of events, progression-free survival",[2]; [10],15/11
same,"Number of events, overall survival",[2]; [11],16/13
same,"Number of events, progression-free survival",[2]; [11],16/9
same,"Number of events, overall survival","[2]; Cmin1 Q3 (≥86.9-<105.6) μg/mL, 15 patients per group",15/8
same,"Number of events, progression-free survival","[2]; Cmin1 Q3 (≥86.9=<105.6) μg/mL, 15 patients per group",15/10
same,"Number of events, overall survival",[2]; [12],16/10
same,"Number of events, progression-free survival",[2]; [12],16/11
same,"Mucositis Grade <=2 (consolidated TEAE), number of patients",[3]; human,20
same,"Mucositis Grade <=2, % (consolidated TEAE)",[3]; human,(30.8) %
same,"Mucositis Grade >2 (consolidated TEAE), number of patients",[3]; human,3
same,"Mucositis Grade >2, % (consolidated TEAE)",[3]; human,(4.6) %
same,"Mucositis Grade >=4 (consolidated TEAE), number of patients",[3]; human,0
same,"Neutropenia Grade <=2 (consolidated TEAE), number of patients",[3]; human,3
same,"Neutropenia Grade <=2, % (consolidated TEAE)",[3]; human,(4.6) %
same,"Neutropenia Grade >2 (consolidated TEAE), number of patients",[3]; human,22
same,"Neutropenia Grade >2, % (consolidated TEAE)",[3]; human,(33.8) %
same,"Neutropenia Grade >=4 (consolidated TEAE), number of patients",[3]; human,17
same,"Neutropenia Grade >=4, % (consolidated TEAE)",[3]; human,(26.2) %
same,"TEAE Overall Grade <=2, %",[3]; human,(29.2) %
same,"TEAE Overall Grade <=2, number of patients",[3]; human,19
same,"TEAE Overall Grade >2, %",[3]; human,(69.2) %
same,"TEAE Overall Grade >2, number of patients",[3]; human,45
same,"TEAE Overall Grade >=4, %",[3]; human,(30.8) %
same,"TEAE Overall Grade >=4, number of patients",[3]; human,20
olaratumab,stratified HR for overall survival,"[1]; Combination Arm vs Doxorubicin Arm, final analysis",0.46
same,median OS,[1]; final analysis,26.5 months
same,median PFS,[1]; final analysis,6.6 months
same,stratified HR for progression-free survival,"[1]; olaratumab plus doxorubicin vs doxorubicin, final analysis",0.672
same,OS improvement in the lowest exposure quartile,"[2]; Cmin1<63 μg/mL, N=15",no improvement in OS; also recorded: did not show OS improvement; also recorded: did not have OS
same,PFS and OS improvement in the upper quartiles of olaratumab serum exposure,[2]; regardless of Cmin at end of cycle 1 or average serum concentration,greater improvement in progression-free survival and overall survival
same,predicted effect of olaratumab on HR for PFS (FIG. 1),[4],not predicted to change until the Cmin1 or Cavg reaches values corresponding to the 25th percentile of their distribution in the study
same,"Mucositis Grade <=2 (consolidated TEAE), number of patients",[3],32
same,"Mucositis Grade <=2, % (consolidated TEAE)",[3],(51.6) %
same,"Mucositis Grade >2 (consolidated TEAE), number of patients",[3],2
same,"Mucositis Grade >2, % (consolidated TEAE)",[3],(3.2) %
same,"Mucositis Grade >=4 (consolidated TEAE), number of patients",[3],0
same,"Neutropenia Grade <=2 (consolidated TEAE), number of patients",[3],3
same,"Neutropenia Grade <=2, % (consolidated TEAE)",[3],(4.8) %
same,"Neutropenia Grade >2 (consolidated TEAE), number of patients",[3],35
same,"Neutropenia Grade >2, % (consolidated TEAE)",[3],(56.5) %
same,"Neutropenia Grade >=4 (consolidated TEAE), number of patients",[3],23
same,"Neutropenia Grade >=4, % (consolidated TEAE)",[3],(37.1) %
same,"TEAE Overall Grade <=2, %",[3],(19.4) %
same,"TEAE Overall Grade <=2, number of patients",[3],12
same,"TEAE Overall Grade >2, %",[3],(79.0) %
same,"TEAE Overall Grade >2, number of patients",[3],49
same,"TEAE Overall Grade >=4, %",[3],(40.3) %
same,"TEAE Overall Grade >=4, number of patients",[3],25
same,cycle in which steady-state olaratumab serum levels are achieved (PopPK model),[5],≥ 3 Cycle
same,mean maximum serum concentration (Cmax) after the first dose,"[6]; 15 mg/kg, cycle 1",284 µg/mL
same,mean maximum serum concentration (Cmax) after the second dose,"[6]; 15 mg/kg, cycle 1",293 µg/mL
same,Cavg range,"[6]; Overall, n = 62, average over entire treatment",56.0 to 347.3 µg/mL
same,Cmin1 range,"[6]; Overall, n = 62, trough at the end of Cycle 1",12.3 to 188.1 µg/mL
same,mean trough serum concentration (Cmin) at the end of the cycle,[6]; cycle 1,66.5 µg/mL
same,individual apparent terminal elimination half-life,[6]; during cycle 3,6.67 days and 14.4 days
same,cycle in which steady state is reached,[6]; in vivo,3 cycle
